Columns and labels:
[1] = molecular target: Serine/threonine-protein kinase Nek1 (Homo sapiens) (UniProt Q96PY6); details: Compound concentration 1000.0 nM
[2] = molecular target: Epidermal growth factor receptor (Homo sapiens) (UniProt P00533); details: Compound concentration 1000.0 nM
[3] = molecular target: Serine/threonine-protein kinase/endoribonuclease IRE1 (Homo sapiens) (UniProt O75460); details: Compound concentration 1000.0 nM
[4] = molecular target: Serine/threonine-protein kinase WNK2 (Homo sapiens) (UniProt Q9Y3S1); details: Compound concentration 1000.0 nM
[5] = system: Phosphatidylinositol 4,5-bisphosphate 3-kinase catalytic subunit alpha isoform (Homo sapiens), P42336 [H1047L]; details: Compound concentration 1000.0 nM
[6] = molecular target: Calcium/calmodulin-dependent protein kinase type II subunit gamma (Homo sapiens) (UniProt Q13555); details: Compound concentration 1000.0 nM
Chain of Calcium/calmodulin-dependent protein kinase type II subunit gamma (Homo sapiens) (Q13555 whole entry): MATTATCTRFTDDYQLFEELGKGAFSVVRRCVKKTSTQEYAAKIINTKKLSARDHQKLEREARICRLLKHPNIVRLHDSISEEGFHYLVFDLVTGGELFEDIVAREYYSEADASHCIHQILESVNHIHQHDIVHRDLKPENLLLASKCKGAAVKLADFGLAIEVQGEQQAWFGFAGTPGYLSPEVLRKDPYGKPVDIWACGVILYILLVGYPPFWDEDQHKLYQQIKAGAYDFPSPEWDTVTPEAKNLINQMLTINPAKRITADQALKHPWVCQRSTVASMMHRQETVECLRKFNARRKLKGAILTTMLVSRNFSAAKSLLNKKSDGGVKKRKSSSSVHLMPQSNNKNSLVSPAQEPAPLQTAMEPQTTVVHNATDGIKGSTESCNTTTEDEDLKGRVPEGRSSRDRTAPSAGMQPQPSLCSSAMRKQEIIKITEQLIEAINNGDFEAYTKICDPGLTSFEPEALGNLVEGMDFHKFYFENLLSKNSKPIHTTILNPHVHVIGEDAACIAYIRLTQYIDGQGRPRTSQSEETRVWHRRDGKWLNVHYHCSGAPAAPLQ

[7] = molecular target: Alpha-2A adrenergic receptor (Homo sapiens) (UniProt P08913); details: Compound concentration 10.0 uM
Chain of Alpha-2A adrenergic receptor (Homo sapiens) (P08913 whole entry): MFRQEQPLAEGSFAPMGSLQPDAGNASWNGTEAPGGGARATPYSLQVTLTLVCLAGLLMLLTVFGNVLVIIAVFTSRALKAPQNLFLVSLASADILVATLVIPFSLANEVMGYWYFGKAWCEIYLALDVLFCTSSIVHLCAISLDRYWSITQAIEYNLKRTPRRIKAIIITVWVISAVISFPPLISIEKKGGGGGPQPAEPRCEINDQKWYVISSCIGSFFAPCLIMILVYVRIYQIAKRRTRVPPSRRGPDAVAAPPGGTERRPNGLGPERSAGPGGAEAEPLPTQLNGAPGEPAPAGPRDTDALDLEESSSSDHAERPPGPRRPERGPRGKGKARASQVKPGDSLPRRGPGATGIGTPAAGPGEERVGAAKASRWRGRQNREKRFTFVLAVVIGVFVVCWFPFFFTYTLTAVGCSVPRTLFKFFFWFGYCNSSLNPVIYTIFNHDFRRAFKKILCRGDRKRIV

[8] = molecular target: Mitogen-activated protein kinase kinase kinase 14 (Homo sapiens) (UniProt Q99558); details: Compound concentration 1000.0 nM
[9] = molecular target: G protein-coupled receptor kinase 4 (Homo sapiens) (UniProt P32298); details: Compound concentration 1000.0 nM
[10] = molecular target: Dual specificity protein kinase TTK (Homo sapiens) (UniProt P33981); details: Compound concentration 1000.0 nM
[11] = molecular target: Rho-associated protein kinase 1 (Homo sapiens) (UniProt Q13464); details: Compound concentration 1000.0 nM
[12] = molecular target: Alpha-2B adrenergic receptor (Homo sapiens) (UniProt P18089); details: Compound concentration 10.0 uM
[13] = molecular target: Ribosomal protein S6 kinase alpha-3 (Homo sapiens) (UniProt P51812); details: Compound concentration 1000.0 nM
[14] = molecular target: Receptor-interacting serine/threonine-protein kinase 1 (Homo sapiens) (UniProt Q13546); details: Compound concentration 1000.0 nM
[15] = molecular target: Dual specificity tyrosine-phosphorylation-regulated kinase 1B (Homo sapiens) (UniProt Q9Y463); details: Compound concentration 1000.0 nM
[16] = molecular target: Tyrosine-protein kinase BTK (Homo sapiens) (UniProt Q06187); details: Compound concentration 1000.0 nM
[17] = molecular target: Serine/threonine-protein kinase Nek4 (Homo sapiens) (UniProt P51957); details: Compound concentration 1000.0 nM
[18] = molecular target: Megakaryocyte-associated tyrosine-protein kinase (Homo sapiens) (UniProt P42679); details: Compound concentration 1000.0 nM
[19] = molecular target: Receptor tyrosine-protein kinase erbB-2 (Homo sapiens) (UniProt P04626); details: Compound concentration 1000.0 nM
[20] = molecular target: Serine/threonine-protein kinase RIO3 (Homo sapiens) (UniProt O14730); details: Compound concentration 1000.0 nM
[21] = system: Phosphatidylinositol 4,5-bisphosphate 3-kinase catalytic subunit alpha isoform (Homo sapiens), P42336 [Q546K]; details: Compound concentration 1000.0 nM
[22] = molecular target: Fibroblast growth factor receptor 3 (Homo sapiens) (UniProt P22607); details: Compound concentration 1000.0 nM
[23] = system: Epidermal growth factor receptor (Homo sapiens), P00533 [G719S]; details: Compound concentration 1000.0 nM
[24] = molecular target: Dual specificity tyrosine-phosphorylation-regulated kinase 1A (Homo sapiens) (UniProt Q13627); details: Compound concentration 1000.0 nM
[25] = molecular target: Leucine-rich repeat serine/threonine-protein kinase 2 (Homo sapiens) (UniProt Q5S007); details: Compound concentration 1000.0 nM
[26] = molecular target: Serine/threonine-protein kinase 4 (Homo sapiens) (UniProt Q13043); details: Compound concentration 1000.0 nM
[27] = molecular target: Homeodomain-interacting protein kinase 1 (Homo sapiens) (UniProt Q86Z02); details: Compound concentration 1000.0 nM
[28] = molecular target: Tyrosine-protein kinase Lck (Homo sapiens) (UniProt P06239); details: Compound concentration 1000.0 nM
[29] = molecular target: Receptor-type tyrosine-protein kinase FLT3 (Homo sapiens) (UniProt P36888); details: Compound concentration 1000.0 nM
Chain of Receptor-type tyrosine-protein kinase FLT3 (Homo sapiens) (P36888 whole entry): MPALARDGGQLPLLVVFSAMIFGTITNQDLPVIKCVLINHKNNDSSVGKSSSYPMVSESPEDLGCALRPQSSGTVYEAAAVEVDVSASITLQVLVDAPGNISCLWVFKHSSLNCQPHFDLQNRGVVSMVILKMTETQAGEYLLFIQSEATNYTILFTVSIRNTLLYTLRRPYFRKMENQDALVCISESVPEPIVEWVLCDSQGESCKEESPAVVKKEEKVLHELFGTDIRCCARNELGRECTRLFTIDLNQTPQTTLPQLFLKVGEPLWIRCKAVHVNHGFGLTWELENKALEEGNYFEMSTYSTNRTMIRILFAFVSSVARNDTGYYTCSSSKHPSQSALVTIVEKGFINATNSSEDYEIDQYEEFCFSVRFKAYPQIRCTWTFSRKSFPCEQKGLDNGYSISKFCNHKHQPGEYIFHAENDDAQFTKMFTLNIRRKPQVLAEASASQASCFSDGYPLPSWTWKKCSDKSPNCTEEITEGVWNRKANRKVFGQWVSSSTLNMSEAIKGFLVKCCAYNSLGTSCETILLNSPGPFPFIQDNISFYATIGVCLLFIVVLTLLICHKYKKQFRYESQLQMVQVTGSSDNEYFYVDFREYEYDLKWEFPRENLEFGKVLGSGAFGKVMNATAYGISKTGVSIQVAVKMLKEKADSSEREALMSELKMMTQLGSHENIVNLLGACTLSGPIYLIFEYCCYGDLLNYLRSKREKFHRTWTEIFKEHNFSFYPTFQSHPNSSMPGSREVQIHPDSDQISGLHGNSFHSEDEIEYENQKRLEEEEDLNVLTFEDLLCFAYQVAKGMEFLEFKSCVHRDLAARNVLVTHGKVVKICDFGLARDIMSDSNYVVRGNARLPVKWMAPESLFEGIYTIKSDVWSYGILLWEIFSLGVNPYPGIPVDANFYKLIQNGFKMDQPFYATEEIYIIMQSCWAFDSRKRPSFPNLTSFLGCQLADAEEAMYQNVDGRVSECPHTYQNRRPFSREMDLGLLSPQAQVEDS

[30] = molecular target: Calcium/calmodulin-dependent protein kinase kinase 2 (Homo sapiens) (UniProt Q96RR4); details: Compound concentration 1000.0 nM
[31] = molecular target: Serine/threonine-protein kinase Nek5 (Homo sapiens) (UniProt Q6P3R8); details: Compound concentration 1000.0 nM
[32] = molecular target: Serine/threonine-protein kinase 26 (Homo sapiens) (UniProt Q9P289); details: Compound concentration 1000.0 nM
[33] = system: Receptor-type tyrosine-protein kinase FLT3 (Homo sapiens), P36888 [UNDEFINED MUTATION]; details: Compound concentration 1000.0 nM
Chain of Receptor-type tyrosine-protein kinase FLT3 (Homo sapiens), P36888 [UNDEFINED MUTATION] (P36888 whole entry, looked up, change not shown): as the sequence (P36888 whole entry) above

[34] = molecular target: Serine/threonine-protein kinase MRCK gamma (Homo sapiens) (UniProt Q6DT37); details: Compound concentration 1000.0 nM
[35] = molecular target: Phosphatidylinositol 5-phosphate 4-kinase type-2 gamma (Homo sapiens) (UniProt Q8TBX8); details: Compound concentration 1000.0 nM
[36] = system: Phosphatidylinositol 4,5-bisphosphate 3-kinase catalytic subunit alpha isoform (Homo sapiens), P42336 [E545K]; details: Compound concentration 1000.0 nM
[37] = molecular target: Phosphatidylinositol 4,5-bisphosphate 3-kinase catalytic subunit delta isoform (Homo sapiens) (UniProt O00329); details: Compound concentration 1000.0 nM
[38] = molecular target: STE20/SPS1-related proline-alanine-rich protein kinase (Homo sapiens) (UniProt Q9UEW8); details: Compound concentration 1000.0 nM
[39] = molecular target: Activin receptor type-1B (Homo sapiens) (UniProt P36896); details: Compound concentration 1000.0 nM
[40] = molecular target: Tyrosine-protein kinase CSK (Homo sapiens) (UniProt P41240); details: Compound concentration 1000.0 nM
Chain of Tyrosine-protein kinase CSK (Homo sapiens) (P41240 2-450 limits assumed): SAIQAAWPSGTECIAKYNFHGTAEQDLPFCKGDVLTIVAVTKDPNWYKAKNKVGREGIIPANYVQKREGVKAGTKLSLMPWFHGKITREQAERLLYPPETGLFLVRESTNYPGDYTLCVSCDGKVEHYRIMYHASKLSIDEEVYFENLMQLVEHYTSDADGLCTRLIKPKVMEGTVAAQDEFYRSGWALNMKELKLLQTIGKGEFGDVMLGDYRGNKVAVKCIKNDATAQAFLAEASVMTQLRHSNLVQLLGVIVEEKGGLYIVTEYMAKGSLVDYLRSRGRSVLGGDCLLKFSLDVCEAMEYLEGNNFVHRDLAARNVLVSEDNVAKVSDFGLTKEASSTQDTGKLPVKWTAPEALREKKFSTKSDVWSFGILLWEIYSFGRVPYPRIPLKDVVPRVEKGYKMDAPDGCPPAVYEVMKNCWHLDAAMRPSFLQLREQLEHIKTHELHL

[41] = molecular target: Insulin-like growth factor 1 receptor (Homo sapiens) (UniProt P08069); details: Compound concentration 1000.0 nM
[42] = molecular target: Phosphatidylinositol 5-phosphate 4-kinase type-2 beta (Homo sapiens) (UniProt P78356); details: Compound concentration 1000.0 nM
[43] = molecular target: Serine/threonine-protein kinase NLK (Homo sapiens) (UniProt Q9UBE8); details: Compound concentration 1000.0 nM
[44] = molecular target: Homeodomain-interacting protein kinase 3 (Homo sapiens) (UniProt Q9H422); details: Compound concentration 1000.0 nM
Chain of Homeodomain-interacting protein kinase 3 (Homo sapiens) (Q9H422 whole entry, looked up): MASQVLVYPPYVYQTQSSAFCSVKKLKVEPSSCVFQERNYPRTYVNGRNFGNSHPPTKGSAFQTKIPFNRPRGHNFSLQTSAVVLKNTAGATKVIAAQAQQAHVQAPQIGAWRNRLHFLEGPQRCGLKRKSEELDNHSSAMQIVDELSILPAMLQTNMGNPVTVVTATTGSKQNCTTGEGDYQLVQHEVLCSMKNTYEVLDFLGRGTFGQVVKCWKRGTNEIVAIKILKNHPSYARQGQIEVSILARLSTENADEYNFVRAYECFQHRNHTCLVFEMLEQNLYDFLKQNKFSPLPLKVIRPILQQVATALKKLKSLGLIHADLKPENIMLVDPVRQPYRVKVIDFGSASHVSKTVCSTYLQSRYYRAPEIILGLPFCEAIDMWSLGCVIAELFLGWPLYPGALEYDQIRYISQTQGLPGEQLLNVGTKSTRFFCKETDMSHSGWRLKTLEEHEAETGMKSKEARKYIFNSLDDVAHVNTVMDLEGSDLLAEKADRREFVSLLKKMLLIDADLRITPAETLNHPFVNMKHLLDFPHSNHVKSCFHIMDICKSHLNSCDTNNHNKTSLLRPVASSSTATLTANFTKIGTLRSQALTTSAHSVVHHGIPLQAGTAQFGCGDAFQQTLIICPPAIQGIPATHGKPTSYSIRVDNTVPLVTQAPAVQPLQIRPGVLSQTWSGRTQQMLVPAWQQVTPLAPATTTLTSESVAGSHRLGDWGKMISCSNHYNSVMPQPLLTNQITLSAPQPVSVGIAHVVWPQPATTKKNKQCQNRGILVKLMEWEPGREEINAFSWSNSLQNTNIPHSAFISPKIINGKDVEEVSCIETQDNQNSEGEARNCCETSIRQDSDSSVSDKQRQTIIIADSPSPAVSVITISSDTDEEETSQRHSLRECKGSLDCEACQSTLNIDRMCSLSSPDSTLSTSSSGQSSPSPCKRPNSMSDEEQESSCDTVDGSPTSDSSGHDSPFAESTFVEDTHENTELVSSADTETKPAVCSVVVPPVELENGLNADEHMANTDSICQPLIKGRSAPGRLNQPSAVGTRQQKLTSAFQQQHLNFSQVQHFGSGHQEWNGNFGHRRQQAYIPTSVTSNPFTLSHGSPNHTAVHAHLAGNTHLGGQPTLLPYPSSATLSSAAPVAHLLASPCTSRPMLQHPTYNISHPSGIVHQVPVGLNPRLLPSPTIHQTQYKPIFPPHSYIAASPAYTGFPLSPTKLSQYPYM

Chain of Serine/threonine-protein kinase Nek1 (Homo sapiens) (Q96PY6 whole entry): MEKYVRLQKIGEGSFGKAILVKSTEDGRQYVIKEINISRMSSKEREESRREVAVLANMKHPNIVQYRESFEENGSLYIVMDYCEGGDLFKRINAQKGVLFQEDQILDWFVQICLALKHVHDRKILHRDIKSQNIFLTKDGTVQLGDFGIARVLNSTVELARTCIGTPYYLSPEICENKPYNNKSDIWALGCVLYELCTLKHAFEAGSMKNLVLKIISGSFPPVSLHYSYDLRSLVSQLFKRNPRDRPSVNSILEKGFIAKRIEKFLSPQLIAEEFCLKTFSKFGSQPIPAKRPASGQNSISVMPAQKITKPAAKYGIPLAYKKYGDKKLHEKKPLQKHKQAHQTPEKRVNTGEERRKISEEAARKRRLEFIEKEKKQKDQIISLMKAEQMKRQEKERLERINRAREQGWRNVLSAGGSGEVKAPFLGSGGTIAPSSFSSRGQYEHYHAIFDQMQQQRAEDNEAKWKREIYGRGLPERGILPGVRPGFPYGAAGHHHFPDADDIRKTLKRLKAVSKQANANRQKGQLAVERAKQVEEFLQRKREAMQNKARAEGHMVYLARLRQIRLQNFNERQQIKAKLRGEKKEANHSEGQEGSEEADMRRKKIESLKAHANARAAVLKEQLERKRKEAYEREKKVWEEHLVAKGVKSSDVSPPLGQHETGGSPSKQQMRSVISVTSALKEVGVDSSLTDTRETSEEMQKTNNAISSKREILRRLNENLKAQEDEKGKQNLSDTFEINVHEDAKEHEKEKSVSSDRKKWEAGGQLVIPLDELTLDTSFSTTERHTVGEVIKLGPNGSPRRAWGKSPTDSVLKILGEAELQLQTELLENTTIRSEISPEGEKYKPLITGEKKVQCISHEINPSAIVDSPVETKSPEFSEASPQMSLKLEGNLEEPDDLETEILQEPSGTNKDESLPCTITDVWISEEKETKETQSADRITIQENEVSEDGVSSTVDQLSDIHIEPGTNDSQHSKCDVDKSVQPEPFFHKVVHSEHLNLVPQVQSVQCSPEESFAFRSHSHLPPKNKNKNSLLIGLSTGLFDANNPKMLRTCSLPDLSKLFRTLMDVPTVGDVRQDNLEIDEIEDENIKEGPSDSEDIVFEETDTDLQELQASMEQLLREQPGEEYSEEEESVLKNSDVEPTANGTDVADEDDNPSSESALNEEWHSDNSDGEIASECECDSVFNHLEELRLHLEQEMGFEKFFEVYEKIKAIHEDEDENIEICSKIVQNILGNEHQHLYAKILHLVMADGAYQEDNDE

COc1cc(-c2cn([C@H]3CCc4c(F)cccc4N(CC(F)(F)F)C3=O)nn2)ccc1-n1cnc(C)c1
inactive: residual activity [1] 100% | residual activity [2] 100% | residual activity [3] 100% | residual activity [4] 53% | residual activity [5] 96% | residual activity [6] 100% | inhibition [7] 35% | residual activity [8] 86% | residual activity [9] 100% | residual activity [10] 100% | residual activity [11] 100% | inhibition [12] 31.1% | residual activity [13] 100% | residual activity [14] 100% | residual activity [15] 100% | residual activity [16] 100% | residual activity [17] 100% | residual activity [18] 100% | residual activity [19] 100% | residual activity [20] 100% | residual activity [21] 90% | residual activity [22] 100% | residual activity [23] 90% | residual activity [24] 84% | residual activity [25] 57% | residual activity [26] 100% | residual activity [27] 100% | residual activity [28] 100% | residual activity [29] 100% | residual activity [30] 100% | residual activity [31] 90% | residual activity [32] 90% | residual activity [33] 82% | residual activity [34] 100% | residual activity [35] 100% | residual activity [36] 70% | residual activity [37] 100% | residual activity [38] 100% | residual activity [39] 100% | residual activity [40] 100% | residual activity [41] 100% | residual activity [42] 73% | residual activity [43] 100% | residual activity [44] 100%

COc1cc(-c2cn([C@H]3CCc4ccccc4N(CC(F)(F)F)C3=O)nn2)ccc1-n1ccc(C)n1
inactive: residual activity [1] 100% | residual activity [2] 100% | residual activity [3] 86% | residual activity [4] 87% | residual activity [5] 97% | residual activity [6] 100% | inhibition [7] 22.2% | residual activity [8] 69% | residual activity [9] 100% | residual activity [10] 100% | residual activity [11] 100% | inhibition [12] 7.14% | residual activity [13] 97% | residual activity [14] 100% | residual activity [15] 100% | residual activity [16] 82% | residual activity [17] 100% | residual activity [18] 80% | residual activity [19] 100% | residual activity [20] 100% | residual activity [21] 97% | residual activity [22] 100% | residual activity [23] 100% | residual activity [24] 83% | residual activity [25] 54% | residual activity [26] 100% | residual activity [27] 96% | residual activity [28] 100% | residual activity [29] 89% | residual activity [30] 100% | residual activity [31] 100% | residual activity [32] 83% | residual activity [33] 80% | residual activity [34] 100% | residual activity [35] 100% | residual activity [36] 84% | residual activity [37] 100% | residual activity [38] 98% | residual activity [39] 83% | residual activity [40] 100% | residual activity [41] 100% | residual activity [42] 65% | residual activity [43] 100% | residual activity [44] 83%

Reference: ChEMBL document CHEMBL4507289, “Data for DCP probe GSM1” (2021)
